# Measured values from patent publication US20070161581A1, “Novel aminoglycoside antibiotics effective against methicillin resistant staphylococcus auerus (mrsas)” (priority 2004, published 2007).
# How the values were obtained:
# [1] = system: MRSA-HR; test: Antimicrobial activity, MIC by agar plate dilution method against MRSA-HR; type: cell-based, methicillin resistant Staphylococcus aureus; details: Staphylococcus aureus, read-out: minimal inhibitory concentration (MIC) against MRSA-HR
# Procedure: (§1) The minimal inhibitory concentration (MIC, μg/mL) against MRSAs (MRSA-HR and MRSA-LR) were measured for typical comounds of novel aminoglycoside antibiotic derivatives described in the Examples (Example 1, Example 2, Example 9, Example 13, Example 18, Example 24, Example 44, Example 45, Example 48, Example 49, Example 51, Example 52, Example 53, Example 54, and Example 76) by an agar plate dilution method based on the method based on the JAPANESE SOCIETY OF CHEMOTHERAPY. As a result, the MIC value of the compounds described in the Examples was not more than 8 against MRSA-HR and not more than 4 against MRSA-LR. The same test was carried out for arbekacin described in Japanese Patent Laid-Open No. 164696/1980.
# [2] = system: MRSA-LR; test: Antimicrobial activity, MIC by agar plate dilution method against MRSA-LR; type: cell-based, methicillin resistant Staphylococcus aureus; details: Staphylococcus aureus, read-out: minimal inhibitory concentration (MIC) against MRSA-LR
# Procedure: as §1
# [3] = system: P. aeruginosa PAO1; test: Antimicrobial activity, MIC against P. aeruginosa PAO1; type: cell-based; details: Pseudomonas aeruginosa, read-out: minimal inhibitory concentration (MIC) against P. aeruginosa PAO1
structure (smiles),measurement,setting,value
"NCC[C@H](O)C(=O)NC1C[C@H](N)C(O[C@H]2OC(CN)CCC2N)C(O)[C@H]1O[C@H]1OC(CO)[C@H](O)C(N)C1O (some centres unmarked) [Example 1, 5,4″-diepiarbekacin]",MIC,[1],≤ 8 mg/L
same,MIC,[2],≤ 4 mg/L
same,MIC,[3],≤ 4 mg/L
"NCCNC1C(O[C@H]2OC(CN)CCC2N)[C@@H](N)CC(NC(=O)[C@@H](O)CCN)[C@@H]1O[C@H]1OC(CO)[C@@H](O)C(N)C1O (stereo partly drawn) [Example 24, 5-Deoxy-5-epi(2-aminoethyl)aminoarbekacin]",MIC,[1],≤ 8 mg/L
same,MIC,[2],≤ 4 mg/L
same,MIC,[3],≤ 4 mg/L
"NCC[C@H](O)C(=O)NC1C[C@H](N)C(O[C@H]2OC(CN)CCC2N)C(F)[C@H]1O[C@H]1OC(CO)[C@H](O)C(N)C1O (stereo partly drawn) [Example 2, 5-Deoxy-4″-epi-5-epifluoroarbekacin]",MIC,[1],≤ 8 mg/L
same,MIC,[2],≤ 4 mg/L
same,MIC,[3],≤ 4 mg/L
"NCC[C@H](O)C(=O)NC1C[C@H](N)C(O[C@H]2OC(CN)C=CC2N)C(O)[C@H]1O[C@H]1OC(CO)CC(N)C1O (some centres unmarked) [Example 54, 4″-Deoxy-3′,4′-didehydro-5-epiarbekacin]",MIC,[1],≤ 8 mg/L
same,MIC,[2],≤ 4 mg/L
same,MIC,[3],≤ 4 mg/L
"NCC[C@H](O)C(=O)NC1C[C@H](N)C(O[C@H]2OC(CN)C=CC2N)C(O)[C@H]1O[C@H]1OC(CO)[C@H](O)C(N)C1O (some centres unmarked) [Example 51, 3′,4′-Didehydro-5,4″-diepiarbekacin]",MIC,[1],≤ 8 mg/L
same,MIC,[2],≤ 4 mg/L
same,MIC,[3],≤ 4 mg/L
"NCC[C@H](O)C(=O)NC1C[C@H](N)C(O[C@H]2OC(CN)CCC2N)C(O)[C@H]1O[C@H]1OC(CO)[C@@H](O)C(N)C1O (some centres unmarked) [Example 13, 5-Epiarbekacin]",MIC,[1],≤ 8 mg/L
same,MIC,[2],≤ 4 mg/L
same,MIC,[3],≤ 4 mg/L
"NCC[C@H](O)C(=O)NC1C[C@H](N)C(O[C@H]2OC(CN)C=CC2N)C(F)[C@H]1O[C@H]1OC(CO)[C@@H](O)C(N)C1O (some centres unmarked) [Example 45, 5-Deoxy-3′,4′-didehydro-5-epifluoroarbekacin]",MIC,[1],≤ 8 mg/L
same,MIC,[2],≤ 4 mg/L
same,MIC,[3],≤ 4 mg/L
"NCC[C@H](O)C(=O)NC1C[C@H](N)C(O[C@H]2OC(CN)C=CC2N)C(N)[C@H]1O[C@H]1OC(CO)[C@H](O)C(N)C1O (stereo partly drawn) [Example 53, 5-Deoxy-3′,4′-didehydro-4″-epi-5-epiaminoarbekacin]",MIC,[1],≤ 8 mg/L
same,MIC,[2],≤ 4 mg/L
same,MIC,[3],≤ 4 mg/L
"NCC[C@H](O)C(=O)NC1C[C@H](N)C(O[C@H]2OC(CN)C=CC2N)C(F)[C@H]1O[C@H]1OC(CO)[C@H](O)C(N)C1O (stereo partly drawn) [Example 52, 5-Deoxy-3′,4′-didehydro-4″-epi-5-epifluoroarbekacin]",MIC,[1],≤ 8 mg/L
same,MIC,[2],≤ 4 mg/L
same,MIC,[3],≤ 4 mg/L
"NCC[C@H](O)C(=O)NC1C[C@H](N)C(O[C@H]2OC(CN)CCC2N)C(O)[C@H]1O[C@H]1OC(C(O)CN)[C@@H](O)C(N)C1O (some centres unmarked) [Example 76, 6″-Aminomethylarbekacin]",MIC,[1],≤ 8 mg/L
same,MIC,[2],≤ 4 mg/L
same,MIC,[3],≤ 4 mg/L
"NCC[C@H](O)C(=O)NC1C[C@H](N)C(O[C@H]2OC(CN)C=CC2N)C(O)[C@H]1O[C@H]1OC(CO)[C@@H](O)C(N)C1O (some centres unmarked) [Example 44, 3′,4′-didehydro-5-epiarbekacin]",MIC,[1],≤ 8 mg/L
same,MIC,[2],≤ 4 mg/L
same,MIC,[3],≤ 4 mg/L
"NCC[C@H](O)C(=O)NC1C[C@H](N)C(O[C@H]2OC(CN)C=CC2N)C(N)[C@H]1O[C@H]1OC(CO)[C@@H](O)C(N)C1O (some centres unmarked) [Example 48, 5-Deoxy-3′,4′-didehydro-5-epiaminoarbekacin]",MIC,[1],≤ 8 mg/L
same,MIC,[2],≤ 4 mg/L
same,MIC,[3],≤ 4 mg/L
"NCC[C@H](O)C(=O)NC1C[C@H](N)C(O[C@H]2OC(CN)CCC2N)C(N)[C@H]1O[C@H]1OC(CO)[C@@H](O)C(N)C1O (some centres unmarked) [Example 18, 5-Deoxy-5-epiaminoarbekacin]",MIC,[1],≤ 8 mg/L
same,MIC,[2],≤ 4 mg/L
same,MIC,[3],≤ 4 mg/L
"NCC[C@H](O)C(=O)N[C@@H]1C[C@H](N)[C@@H](O[C@H]2O[C@H](CN)CC[C@H]2N)[C@H](O)[C@H]1O[C@H]1O[C@H](CO)[C@@H](O)[C@H](N)[C@H]1O [arbekacin, (S)-1-N-(4-amino-2-hydroxybutyroyl)dibekacin, reference compound]",MIC,[1],64 mg/L
same,MIC,[2],16 mg/L
"NCC1CCC(N)[C@@H](OC2C(O)[C@@H](O[C@H]3OC(CO)[C@H](O)C(N)C3O)C(NC(=O)[C@@H](O)CN)C[C@@H]2N)O1 (stereo partly drawn) [Example 9, 1-N-[(S)-(3-amino-2-hydroxypropanoyl)]-5,4″-diepidibekacin]",MIC,[1],≤ 8 mg/L
same,MIC,[2],≤ 4 mg/L
same,MIC,[3],≤ 4 mg/L
